In article PMC6220303 (EMBO Molecular Medicine, 2018):

Experiments:
[1] = tested on: healthy participants ≥ 60 years; experiment: Adverse events after single dose (Appendix Table S5); assay type: in vivo, human
Excerpt: (§1) For further details, see the Appendix Table S10 in Appendix and the accompanying clinical protocols synopsis (Appendix Table S11).
Appendix Table S3. Overview of completed clinical studies with CNP520
Study description Population No. of Participants Dose/Frequency […]
First-in-human, randomized, 18-55 yrs 38 / 14 Single dose (10, 30, 90, […]
controlled, single and multiple CNP520 vs placebo) ascending oral dose study to Single dose (10, 90, 300,

[2] = tested on: healthy participants ≥ 60 years; experiment: Adverse events after 3 months daily dosing (Appendix Table S8); assay type: in vivo, human; conditions: N = 25
Description: as §1
Randomized, double-blind, placebo-controlled, parallel-group study to assess the safety, Multiple-dose over 13-tolerability, pharmacokinetics ≥ 60 yrs 100 / 24 weeks (2, 10, 35 or 85 mg and pharmacodynamics of q.d. CNP520 vs. placebo) multiple oral doses of CNP520 in healthy elderly participants
Title A randomized, double-blind, placebo-controlled, parallel-group study to assess the safety, tolerability, pharmacokinetics and pharmacodynamics of multiple oral doses of CNP520 in healthy elderly subjects
Brief title Dose-ranging safety and tolerability study in subjects ≥60 years of age Sponsor and Clinical Novartis
Study type Interventional […]
rationale months to allow initiation future long-term efficacy trials in patients with Alzheimer’s disease (AD) or in subjects at risk of AD. In addition, data relevant for Pharmacokinetic/Pharmacodynamic modeling will be obtained in order to define the target dose in subsequent efficacy studies.
Primary Objective(s) To determine the safety and tolerability of multiple, once-daily oral doses of […]
Secondary • To assess the change from baseline of CSF Aβ concentrations (Aβ1-Objectives 38; Aβ1-40; Aβ1-42) in healthy elderly subjects over 13 weeks treatment with CNP520 as compared to placebo

## C[C@@]1(c2nc(NC(=O)c3ncc(C(F)(F)F)cc3Cl)ccc2F)CO[C@@](C)(C(F)(F)F)C(N)=N1 [CNP520]
[1]; single dose 10 mg, N = 6
  AE incidence: Ear and labyrinth disorders: 0 (0.0) n (%)
  AE incidence: Eye disorders: 0 (0.0) n (%)
  AE incidence: Gastrointestinal disorders: 1 (16.7) n (%)
  AE incidence: General disorders and administration site conditions: 1 (16.7) n (%)
  AE incidence: Infections and infestations: 0 (0.0) n (%)
  AE incidence: Injury, poisoning and procedural complications: 0 (0.0) n (%)
  AE incidence: Metabolism and nutrition disorders: 1 (16.7) n (%)
  AE incidence: Nervous system disorders: 2 (33.3) n (%)
  AE incidence: Psychiatric disorders: 0 (0.0) n (%)
  AE incidence: Respiratory, thoracic and mediastinal disorders: 0 (0.0) n (%)
  AE incidence: Vascular disorders: 0 (0.0) n (%)
  Participants with at least one AE: 5 (83.3) n (%)
[1]; single dose 90 mg, N = 6
  AE incidence: Ear and labyrinth disorders: 0 (0.0) n (%)
  AE incidence: Eye disorders: 1 (16.7) n (%)
  AE incidence: Gastrointestinal disorders: 0 (0.0) n (%)
  AE incidence: General disorders and administration site conditions: 0 (0.0) n (%)
  AE incidence: Infections and infestations: 0 (0.0) n (%)
  AE incidence: Injury, poisoning and procedural complications: 0 (0.0) n (%)
  AE incidence: Metabolism and nutrition disorders: 0 (0.0) n (%)
  AE incidence: Nervous system disorders: 1 (16.7) n (%)
  AE incidence: Psychiatric disorders: 1 (16.7) n (%)
  AE incidence: Respiratory, thoracic and mediastinal disorders: 0 (0.0) n (%)
  AE incidence: Vascular disorders: 1 (16.7) n (%)
  Participants with at least one AE: 3 (50.0) n (%)
[1]; single dose 300 mg, N = 8
  AE incidence: Ear and labyrinth disorders: 1 (12.5) n (%)
  AE incidence: Eye disorders: 0 (0.0) n (%)
  AE incidence: Gastrointestinal disorders: 0 (0.0) n (%)
  AE incidence: General disorders and administration site conditions: 0 (0.0) n (%)
  AE incidence: Infections and infestations: 0 (0.0) n (%)
  AE incidence: Injury, poisoning and procedural complications: 0 (0.0) n (%)
  AE incidence: Metabolism and nutrition disorders: 0 (0.0) n (%)
  AE incidence: Nervous system disorders: 2 (25.0) n (%)
  AE incidence: Psychiatric disorders: 0 (0.0) n (%)
  AE incidence: Respiratory, thoracic and mediastinal disorders: 0 (0.0) n (%)
  AE incidence: Vascular disorders: 0 (0.0) n (%)
  Participants with at least one AE: 6 (75.0) n (%)
[1]; single dose 750 mg, N = 9
  AE incidence: Ear and labyrinth disorders: 0 (0.0) n (%)
  AE incidence: Eye disorders: 0 (0.0) n (%)
  AE incidence: Gastrointestinal disorders: 2 (22.2) n (%)
  AE incidence: General disorders and administration site conditions: 1 (11.1) n (%)
  AE incidence: Infections and infestations: 0 (0.0) n (%)
  AE incidence: Injury, poisoning and procedural complications: 3 (33.3) n (%)
  AE incidence: Metabolism and nutrition disorders: 0 (0.0) n (%)
  AE incidence: Nervous system disorders: 3 (33.3) n (%)
  AE incidence: Psychiatric disorders: 0 (0.0) n (%)
  AE incidence: Respiratory, thoracic and mediastinal disorders: 0 (0.0) n (%)
  AE incidence: Vascular disorders: 0 (0.0) n (%)
  Participants with at least one AE: 8 (88.9) n (%)
[2]; 2 mg daily
  AE incidence: Blood and lymphatic system disorders: 0 (0.0) n (%)
  AE incidence: Ear and labyrinth disorders: 0 (0.0) n (%)
  AE incidence: Eye disorders: 2 (8.0) n (%)
  AE incidence: Gastrointestinal disorders: 7 (28.0) n (%)
  AE incidence: General disorders and administration site conditions: 1 (4.0) n (%)
  AE incidence: Immune system disorders: 0 (0.0) n (%)
  AE incidence: Infections and infestations: 3 (12.0) n (%)
  AE incidence: Injury, poisoning and procedural complications: 7 (28.0) n (%)
  AE incidence: Investigations: 2 (8.0) n (%)
  AE incidence: Metabolism and nutrition disorders: 1 (4.0) n (%)
  AE incidence: Neoplasms benign, malignant & unspecified (incl. cysts and polyps): 1 (4.0) n (%)
  AE incidence: Nervous system disorders: 13 (52.0) n (%)
  AE incidence: Psychiatric disorders: 1 (4.0) n (%)
  AE incidence: Renal and urinary disorders: 0 (0.0) n (%)
  AE incidence: Reproductive system and breast disorders: 0 (0.0) n (%)
  AE incidence: Respiratory, thoracic and mediastinal disorders: 6 (24.0) n (%)
  AE incidence: Skin and subcutaneous tissue disorders: 3 (12.0) n (%)
  AE incidence: Vascular disorders: 0 (0.0) n (%)
  Participants with at least one AE: 19 (76.0) n (%)
[2]; 10 mg daily
  AE incidence: Blood and lymphatic system disorders: 0 (0.0) n (%)
  AE incidence: Ear and labyrinth disorders: 1 (4.0) n (%)
  AE incidence: Eye disorders: 5 (20.0) n (%)
  AE incidence: Gastrointestinal disorders: 9 (36.0) n (%)
  AE incidence: General disorders and administration site conditions: 2 (8.0) n (%)
